Each compound was assayed against PD-1/PD-L1 interaction (PD-1-Ig / PD-L1-His) (Homo sapiens (Human), UniProt Q9NZQ7) (assay: PD-1/PD-L1 Homogenous Time-Resolved Fluorescence (HTRF) binding assay). Details: PD-1/PD-L1 HTRF binding assay; numeric value; read-out: Range or IC50.
PD-1/PD-L1 interaction (PD-1-Ig / PD-L1-His), sequence (Q9NZQ7 other isoform, or with tags, fused parts or gaps): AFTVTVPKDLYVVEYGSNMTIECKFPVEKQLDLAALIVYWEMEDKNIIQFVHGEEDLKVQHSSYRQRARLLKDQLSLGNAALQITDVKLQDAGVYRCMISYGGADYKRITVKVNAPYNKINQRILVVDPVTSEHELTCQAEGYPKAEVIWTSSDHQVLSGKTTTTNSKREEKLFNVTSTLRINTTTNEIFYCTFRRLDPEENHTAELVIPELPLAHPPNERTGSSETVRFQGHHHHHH
Text: The ability of the compounds of formula (I) to bind to PD-L1 was investigated using a PD-1/PD-L1 Homogenous Time-Resolved Fluorescence (HTRF) binding assay.
Homogenous Time-Resolved Fluorescence (HTRF) Binding Assay.
The interaction of PD-1 and PD-L1 can be assessed using soluble, purified preparations of the extracellular domains of the two proteins. The PD-1 and PD-L1 protein extracellular domains were expressed as fusion proteins with detection tags, for PD-1, the tag was the Fc portion of Immunoglobulin (PD-1-Ig) and for PD-L1 it was the 6 histidine motif (PD-L1-His). All binding studies were performed in an HTRF assay buffer consisting of dPBS supplemented with 0.1% […] bovine serum albumin and 0.05% (v/v) Tween-20. For the h/PD-L1-His binding assay, inhibitors were pre-incubated with PD-L1-His (10 nM final) for 15 m in 4 μl of assay buffer, followed by addition of PD-1-Ig (20 nM final) in 1 μl of assay buffer and further incubation for 15 m. HTRF detection was achieved using europium crypate-labeled anti-Ig (1 nM final) and allophycocyanin (APC) labeled anti-His (20 nM final). Antibodies were diluted in HTRF detection buffer and 5 μl was dispensed on top of the binding reaction. […] Additional binding assays were established between the human proteins PD-1-Ig/PD-L2-His (20 & 5 nM, respectively) and CD80-His/PD-L1-Ig (100 & 10 nM, respectively). […]
`Cc1c(COc2ccc(CN[C@H](CO)C(=O)O)c(OCc3cccc(C#N)c3)c2)cccc1-c1ccccc1` [Example 1016, (R)-2-((2-((3-cyanobenzyl)oxy)-4-((2-methyl-[1,1′-biphenyl]-3-yl)methoxy)benzyl)amino)-3-hydroxypropanoic acid] gave an IC50 of 4.55 nM.

Same assay, conditions: PD-1/PD-L1 HTRF binding assay; value given as range class; read-out: Range or IC50
With `CC(=O)NCCNCc1c(C)cc(OCc2cccc(-c3ccc4c(c3)OCCO4)c2C)cc1OCc1cccc(C#N)c1` [Example 1000, N-(2-(2-(3-cyanobenzyloxy)-4-(3-(2,3-dihydrobenzo[b][1,4]dioxin-6-yl)-2-methylbenzyloxy)-6-methylbenzylamino)ethyl)acetamide] the IC50 was 10 to 100 nM.
`Cc1cc(OCc2cccc(-c3ccc4c(c3)OCCO4)c2C)cc(OCc2cccc(C#N)c2)c1CN[C@H](CO)C(=O)O` [Example 1002, (R)-2-(2-(3-cyanobenzyloxy)-4-(3-(2,3-dihydrobenzo[b][1,4]dioxin-6-yl)-2-methylbenzyloxy)-6-methylbenzylamino)-3-hydroxypropanoic acid] showed an IC50 of 0.6 to 10 nM.
Work on `Cc1cc(OCc2cccc(-c3ccc4c(c3)OCCO4)c2C)cc(OCc2cccc(C#N)c2)c1CNC[C@@H](O)CC(=O)O` [Example 1003, (S)-4-(2-(3-cyanobenzyloxy)-4-(3-(2,3-dihydrobenzo[b][1,4]dioxin-6-yl)-2-methylbenzyloxy)-6-methylbenzylamino)-3-hydroxybutanoic acid] yielded an IC50 of 0.6 to 10 nM.
Work on `CC(=O)NCCNCc1c(C)cc(OCc2cccc(-c3ccc4c(c3)OCCO4)c2C)cc1OCc1cncc(C#N)c1` [Example 1005, N-(2-(2-((5-cyanopyridin-3-yl)methoxy)-4-(3-(2,3-dihydrobenzo[b][1,4]dioxin-6-yl)-2-methylbenzyloxy)-6-methylbenzylamino)ethyl)acetamide] yielded an IC50 of 0.6 to 10 nM.
`Cc1cc(OCc2cccc(-c3ccc4c(c3)OCCO4)c2C)cc(OCc2cncc(C#N)c2)c1CNC[C@@H](O)CC(=O)O` [Example 1006, (S)-4-(2-((5-cyanopyridin-3-yl)methoxy)-4-(3-(2,3-dihydrobenzo[b][1,4]dioxin-6-yl)-2-methylbenzyloxy)-6-methylbenzylamino)-3-hydroxybutanoic acid] showed an IC50 of 0.6 to 10 nM.
`Cc1cc(OCc2cccc(-c3ccc4c(c3)OCCO4)c2C)cc(OCc2cncc(C#N)c2)c1CN[C@H](CO)C(=O)O` [Example 1007, (R)-2-(2-((5-cyanopyridin-3-yl)methoxy)-4-(3-(2,3-dihydrobenzo[b][1,4]dioxin-6-yl)-2-methylbenzyloxy)-6-methylbenzylamino)-3-hydroxypropanoic acid] showed an IC50 of 0.6 to 10 nM.
`Cc1cc(OCc2cccc(-c3ccc4c(c3)OCCO4)c2C)cc(OCc2cncc(C#N)c2)c1CN[C@](C)(CO)C(=O)O` [Example 1008, (R)-2-(2-((5-cyanopyridin-3-yl)methoxy)-4-(3-(2,3-dihydrobenzo[b][1,4]dioxin-6-yl)-2-methylbenzyloxy)-6-methylbenzylamino)-3-hydroxy-2-methylpropanoic acid] showed an IC50 of 0.6 to 10 nM.
Compound `Cc1cc(OCc2cccc(-c3ccc4c(c3)OCCO4)c2C)cc(OCc2cncc(C#N)c2)c1CN1CCCC[C@H]1C(=O)O` [Example 1009, (S)-1-(2-((5-cyanopyridin-3-yl)methoxy)-4-(3-(2,3-dihydrobenzo[b][1,4]dioxin-6-yl)-2-methylbenzyloxy)-6-methylbenzyl)piperidine-2-carboxylic acid] has an IC50 of 0.6 to 10 nM.
For `Cc1cc(OCc2cccc(-c3ccc4c(c3)OCCO4)c2C)cc(OCc2cncc(C#N)c2)c1CN[C@@](C)(CO)C(=O)O` [Example 1010, (S)-2-(2-((5-cyanopyridin-3-yl)methoxy)-4-(3-(2,3-dihydrobenzo[b][1,4]dioxin-6-yl)-2-methylbenzyloxy)-6-methylbenzylamino)-3-hydroxy-2-methylpropanoic acid], the IC50 was 0.6 to 10 nM.
In the case of `Cc1c(COc2ccc(CNC[C@@H](O)CC(=O)O)c(OCc3cccc(C#N)c3)c2)cccc1-c1ccccc1` [Example 1011, (S)-4-((2-((3-cyanobenzyl)oxy)-4-((2-methyl-[1,1′-biphenyl]-3-yl)methoxy)benzyl)amino)-3-hydroxybutanoic acid], the IC50 is reported as 0.6 to 10 nM.
For `Cc1c(COc2ccc(CN[C@H](C(=O)O)[C@H](C)O)c(OCc3cccc(C#N)c3)c2)cccc1-c1ccccc1` [Example 1012, (2S,3S)-2-((2-((3-cyanobenzyl)oxy)-4-((2-methyl-[1,1′-biphenyl]-3-yl)methoxy)benzyl)amino)-3-hydroxybutanoic acid], the IC50 was 10 to 100 nM.
`Cc1c(COc2ccc(CN[C@@H](C(=O)O)[C@@H](C)O)c(OCc3cccc(C#N)c3)c2)cccc1-c1ccccc1` [Example 1013, (2R,3R)-2-((2-((3-cyanobenzyl)oxy)-4-((2-methyl-[1,1′-biphenyl]-3-yl)methoxy)benzyl)amino)-3-hydroxybutanoic acid] was tested, and the IC50 was 0.6 to 10 nM.
Work on `Cc1c(COc2ccc(CNC(C)(CO)C(=O)O)c(OCc3cccc(C#N)c3)c2)cccc1-c1ccccc1` (stereo not drawn) [Example 1014, 2-((2-((3-cyanobenzyl)oxy)-4-((2-methyl-[1,1′-biphenyl]-3-yl)methoxy)benzyl)amino)-3-hydroxy-2-methylpropanoic acid] yielded an IC50 of 0.6 to 10 nM.
Work on `Cc1c(COc2ccc(CN[C@@H](C(=O)O)[C@H](C)O)c(OCc3cccc(C#N)c3)c2)cccc1-c1ccccc1` [Example 1015, (2R,3S)-2-((2-((3-cyanobenzyl)oxy)-4-((2-methyl-[1,1′-biphenyl]-3-yl)methoxy)benzyl)amino)-3-hydroxybutanoic acid] yielded an IC50 of 0.6 to 10 nM.
With `Cc1c(COc2ccc(CNC(CO)C(=O)O)c(OCc3cccc(C#N)c3)c2)cccc1-c1ccccc1` (stereo not drawn) [Example 1017, 2-((2-((3-cyanobenzyl)oxy)-4-((2-methyl-[1,1′-biphenyl]-3-yl)methoxy)benzyl)amino)-3-hydroxypropanoic acid] the IC50 was 0.6 to 10 nM.
`Cc1c(COc2ccc(CN[C@@H](CO)C(=O)O)c(OCc3cccc(C#N)c3)c2)cccc1-c1ccccc1` [Example 1018, (S)-2-((2-((3-cyanobenzyl)oxy)-4-((2-methyl-[1,1′-biphenyl]-3-yl)methoxy)benzyl)amino)-3-hydroxypropanoic acid] showed an IC50 of 0.6 to 10 nM.
Work on `Cc1c(COc2ccc(CN[C@@](C)(CO)C(=O)O)c(OCc3cccc(C#N)c3)c2)cccc1-c1ccccc1` [Example 1019, (S)-2-((2-((3-cyanobenzyl)oxy)-4-((2-methyl-[1,1′-biphenyl]-3-yl)methoxy)benzyl)amino)-3-hydroxy-2-methylpropanoic acid] yielded an IC50 of 0.6 to 10 nM.
`Cc1c(COc2ccc(CNC(CO)(C(=O)O)C(C)C)c(OCc3cccc(C#N)c3)c2)cccc1-c1ccccc1` (stereo not drawn) [Example 1020, 2-((2-((3-cyanobenzyl)oxy)-4-((2-methyl-[1,1′-biphenyl]-3-yl)methoxy)benzyl)amino)-2-(hydroxymethyl)-3-methylbutanoic acid] gave an IC50 of 10 to 100 nM.
`Cc1c(COc2ccc(CN[C@H](CO)CC(=O)O)c(OCc3cccc(C#N)c3)c2)cccc1-c1ccccc1` [Example 1021, (S)-3-((2-((3-cyanobenzyl)oxy)-4-((2-methyl-[1,1′-biphenyl]-3-yl)methoxy)benzyl)amino)-4-hydroxybutanoic acid] gave an IC50 of 0.6 to 10 nM.
`Cc1c(COc2ccc(CN[C@@H](CO)CC(=O)O)c(OCc3cccc(C#N)c3)c2)cccc1-c1ccccc1` [Example 1022, (R)-3-((2-((3-cyanobenzyl)oxy)-4-((2-methyl-[1,1′-biphenyl]-3-yl)methoxy)benzyl)amino)-4-hydroxybutanoic acid] gave an IC50 of 0.6 to 10 nM.
`Cc1c(COc2ccc(CN[C@](C)(CO)C(=O)O)c(OCc3cccc(C#N)c3)c2)cccc1-c1ccccc1` [Example 1023, (R)-2-((2-((3-cyanobenzyl)oxy)-4-((2-methyl-[1,1′-biphenyl]-3-yl)methoxy)benzyl)amino)-3-hydroxy-2-methylpropanoic acid] was tested, and the IC50 was 0.6 to 10 nM.
`CC(=O)NCCNCc1ccc(OCc2cccc(-c3ccccc3)c2C)cc1OCc1ccccc1` [Example 1024, N-(2-((2-(benzyloxy)-4-((2-methyl-[1,1′-biphenyl]-3-yl)methoxy)benzyl)amino)ethyl)acetamide] showed an IC50 of 100 to 20000 nM.
Compound `CC(=O)NCCNCc1ccc(OCc2cccc(-c3ccccc3)c2C)cc1OCc1cccc(C)c1` [Example 1025, N-(2-((4-((2-methyl-[1,1′-biphenyl]-3-yl)methoxy)-2-((3-methylbenzyl)oxy)benzyl)amino)ethyl)acetamide] has an IC50 of 100 to 20000 nM.
`CC(=O)NCCNCc1ccc(OCc2cccc(-c3ccccc3)c2C)cc1OCC(F)(F)F` [Example 1026, N-(2-((4-((2-methyl-[1,1′-biphenyl]-3-yl)methoxy)-2-(2,2,2-trifluoroethoxy)benzyl)amino)ethyl)acetamide] gave an IC50 of 100 to 20000 nM.
`CCCOc1cc(OCc2cccc(-c3ccccc3)c2C)ccc1CNCCNC(C)=O` [Example 1027, N-(2-((4-((2-methyl-[1,1′-biphenyl]-3-yl)methoxy)-2-propoxybenzyl)amino)ethyl)acetamide] was tested, and the IC50 was 100 to 20000 nM.
`CC(=O)NCCNCc1ccc(OCc2cccc(-c3ccccc3)c2C)cc1OCc1cccc(C#N)c1` [Example 1028, N-(2-((2-((3-cyanobenzyl)oxy)-4-((2-methyl-[1,1′-biphenyl]-3-yl)methoxy)benzyl)amino)ethyl)acetamide] showed an IC50 of 10 to 100 nM.
